What all share (details): human
In data set [1] the test system is Hepatotoxicity. Briefly: FDA HLAED, alkaline phosphatase increase.
The test system of data set [2] is Hepatotoxicity. Put plainly: FDA HLAED, serum glutamic pyruvic transaminase (SGPT) increase.
For data set [3], the system named is Hepatotoxicity. Briefly: FDA HLAED, lactate dehydrogenase (LDH) increase.
Data set [4] concerns Hepatotoxicity. Put plainly: FDA HLAED, serum glutamic oxaloacetic transaminase (SGOT) increase.
In data set [5] the test system is Hepatotoxicity. Briefly: FDA HLAED, liver enzyme composite activity.
In data set [6] the test system is Hepatotoxicity. Briefly: FDA HLAED, gamma-glutamyl transferase (GGT) increase.

SMILES strings stand for the structures.
Throughout, for GGT Increase - Index Value: reference of the scale not given here.
Throughout, for LDH Increase - Index Value: reference of the scale not given here.

For the molecule `C[C@@H]1CN(c2c(F)c(N)c3c(=O)c(C(=O)O)cn(C4CC4)c3c2F)C[C@H](C)N1` [SPARFLOXACIN], in the data set with Hepatotoxicity [1], the “Alkaline Phosphatase Increase - Activity Score” value is “Inactive”, the “Alkaline Phosphatase Increase - Index Value” came out at 0 and the “Alkaline Phosphatase Increase - Number of Reports” value was under 4. In the data set with Hepatotoxicity [2], the “SGPT Increase - Activity Score” value was “Inactive”, the “SGPT Increase - Index Value” was determined as 0 and the “SGPT Increase - Number of Reports” value is reported as under 4. Further, in the data set on Hepatotoxicity [3], the “LDH Increase - Activity Score” value is recorded as “Inactive”, the “LDH Increase - Index Value” is listed as 0 and the “LDH Increase - Number of Reports” value is listed as under 4. In the data set with Hepatotoxicity [4], the “SGOT Increase - Activity Score” value is “Inactive”, the “SGOT Increase - Index Value” was determined as 0 and the “SGOT Increase - Number of Reports” value is reported as under 4. Also, in the data set on Hepatotoxicity [5], the “Composite Activity - Active” value was found to be 0, the “Composite Activity - Marginal” value stood at 0 and the “Composite Activity - Score” value is listed as “Inactive”. In the data set with Hepatotoxicity [6], the “GGT Increase - Activity Score” value is “Inactive”, the “GGT Increase - Index Value” turned out to be 0 and the “GGT Increase - Number of Reports” value was under 4.
For the molecule `CCCc1c2oc(C(=O)O)cc(=O)c2cc2c(=O)cc(C(=O)O)n(CC)c12` [NEDOCROMIL], in the data set with Hepatotoxicity [1], the “Alkaline Phosphatase Increase - Activity Score” value is reported as “Inactive”, the “Alkaline Phosphatase Increase - Index Value” turned out to be 0 and the “Alkaline Phosphatase Increase - Number of Reports” value is listed as under 4. Also, in the data set with Hepatotoxicity [2], the “SGPT Increase - Activity Score” value is reported as “Inactive”, the “SGPT Increase - Index Value” was 0.3 and the “SGPT Increase - Number of Reports” value is under 4. Moreover, in the data set with Hepatotoxicity [3], the “LDH Increase - Activity Score” value is given as “Inactive”, the “LDH Increase - Index Value” stood at 0.3 and the “LDH Increase - Number of Reports” value is given as under 4. In the data set on Hepatotoxicity [4], the “SGOT Increase - Activity Score” value is given as “Inactive”, the “SGOT Increase - Index Value” was 0.5 and the “SGOT Increase - Number of Reports” value is reported as under 4. Besides, in the data set on Hepatotoxicity [5], the “Composite Activity - Active” value was found to be 0, the “Composite Activity - Marginal” value is 0 and the “Composite Activity - Score” value is listed as “Inactive”. Also, in the data set with Hepatotoxicity [6], the “GGT Increase - Activity Score” value is reported as “Inactive”, the “GGT Increase - Index Value” is given as 0 and the “GGT Increase - Number of Reports” value is reported as under 4.
For `CC(Cc1ccc(O)c(O)c1)C(C)Cc1ccc(O)c(O)c1` (centres undefined) [NORDIHYDROGUAIARETIC ACID], in the data set on Hepatotoxicity [1], the “Alkaline Phosphatase Increase - Activity Score” value is on record as “Inactive”, the “Alkaline Phosphatase Increase - Index Value” is reported as 0 and the “Alkaline Phosphatase Increase - Number of Reports” value is under 4. For the same molecule, in the data set on Hepatotoxicity [2], the “SGPT Increase - Activity Score” value is listed as “Inactive”, the “SGPT Increase - Index Value” worked out at 0 and the “SGPT Increase - Number of Reports” value is recorded as under 4. Also, in the data set on Hepatotoxicity [3], the “LDH Increase - Activity Score” value is “Inactive”, the “LDH Increase - Index Value” amounted to 0 and the “LDH Increase - Number of Reports” value is given as under 4. Moreover, in the data set with Hepatotoxicity [4], the “SGOT Increase - Activity Score” value is reported as “Inactive”, the “SGOT Increase - Index Value” is listed as 0 and the “SGOT Increase - Number of Reports” value is given as under 4. Also, in the data set with Hepatotoxicity [5], the “Composite Activity - Active” value is given as 0, the “Composite Activity - Marginal” value is listed as 0 and the “Composite Activity - Score” value is “Inactive”. In the data set on Hepatotoxicity [6], the “GGT Increase - Activity Score” value is reported as “Inactive”, the “GGT Increase - Index Value” was determined as 0 and the “GGT Increase - Number of Reports” value was under 4.
